Assay type in all cases: functional
Experiment [1] in a line: Reduction of acetylcholine-induced depolarizing response in Sprague-Dawley rat cortical wedge at 50 uM relative to control. Set-up: scale not given: the % may be the effect or the level left.
The species named for experiment [2] is Rattus norvegicus. Kind of experiment: Effect on neurochemical transmission in Sprague-Dawley rat cortical wedge assessed as hyperpolarization activity at 50 to 500 uM.
A short description of experiment [3]: Reduction of acetylcholine-induced depolarizing response in Sprague-Dawley rat cortical wedge at 10 uM relative to control. Set-up: scale not given: the % may be the effect or the level left.
For experiment [4], the species on record is Rattus norvegicus. Nature of the experiment: Effect on neurochemical transmission in Sprague-Dawley rat cortical wedge assessed as hyperpolarization activity at 10 to 100 uM.

Drawing on ChEMBL document CHEMBL1159280, “Idiospermuline, a trimeric pyrrolidinoindoline alkaloid from the seed of Idiospermum australiense” (1995), this text covers Activity for 3 compounds.

Activity calls are given as the source filed them. The rule behind the calls is not given here.

In experiment [1], `CN1CC[C@]23c4ccccc4N[C@H]1[C@]21CCN(C)[C@H]3Nc2ccccc21` [CALYCANTHINE] had an Activity of 20.4%. In experiment [2], the outcome was Active.

For the compound `CN1CC[C@]2([C@]34CCN(C)[C@H]3Nc3ccccc34)c3ccccc3N[C@H]12` [CHIMONANTHINE], in experiment [3], the Activity was found to be 58.3%. The outcome in experiment [4] was Active.

Consider `CN1CC[C@@]2(c3cccc4c3N[C@H]3N(C)CC[C@@]43[C@@]34CCN(C)[C@@H]3N(C)c3ccccc34)c3ccccc3N(C)[C@@H]12` [IDIOSPERMULINE], for which the Activity in experiment [3] turned out to be 61.2%. In addition, in experiment [4], the outcome was Active.
